Measurements: patent publication US5183821A, “Method for treating leukemias using N-(2-dimethylaminoethyl)-3-amino-1,8-naphthalimide for treating leukemias and solid tumors” (priority 1991, dated 1993)
Several values for one entry are separate records, joined by “and”; a condition that tells them apart may be missing. Identical values can stand only once. Entries after “also recorded” stand apart in the source; their conditions may differ.

Tests used:
leukemia P388 = assay: NCI studies against leukemia P388 (Appendix 1, MDA and T/C); format: in vivo, murine
Description: On the other hand, murine transplantable leukemias are a good predictor of anti-leukemia activity in human beings (Kenis "Dose schedules and mode of administration of chemotherapeutic agents in man". Recent Results Cancer Res. 21, 54-61 (1969). Only those tests which use the survival times as an activity parameter are valid as predictors of antileukemia activity in human beings (for instance, leukemia p388 y L-1210), whilst "in vitro" tests (HeLa cells and other) are inappropriate (Llombart-Rodriguez, 1983). NCI data generated in the last years confirm the value of above assertions to compounds of general formula [drawing 1] as described in U.S. Pat. No. 4,204,063.
Experimental results from NCI studies against leukemia P388 are shown in an appendix (Appendix 1). In order to simplify the presentation of results we have extracted from these the minor active dose (MDA) against leukemia P388--for each compound. MDA is defined as the minor dose of the drug that reaches the minimal activity criteria of the NCI. For leukemia P388 this criteria on the basis of survival time is a minimal increase in survival of treated animals over a control resulting in a T/C≥120. In the following table the MDA for 14 examples are presented. In cases where none of the tested doses reached the MDA, the MDA is indicated as "NONE". The column "cytotoxic activity" has been extracted from U.S. Pat. No. 4,204,063. Data are presented in order of the highest to lowest cytotoxic activity.

canine whole blood = assay: Hemolytic potential testing, canine whole blood; settings: 50 mg/ml
Procedure: Therefore, a concentration of 12.5 mg/ml was used in the dog studies.

L-1210 Lymphoid leukemia = assay: Experiment 6: L-1210 i.p., 10^4 cells, saline with Tween-80, male; format: in vivo, Mouse CD2 F1 (CDF1)
Description: Host: Mouse CD2 F1 (CDF1)
Tumor: L-1210 Lymphoid leukemia
(§1) Inoculum Site: Intraperitoneal
(§2) Vehicle: Saline with Tween-80
(§3) Treatment schedule (relative to tumor inoculation day): daily on days 1-9
Day of evaluation (relative to tumor inoculation day): 30
(§4) Parameter: Median survival time (MST) in days
(§5) NCI minimal activity criteria: Percent T/C≥125
(§6) Percent T/C: Ratio of test (T) evaluation to control (C) evaluation expressed as a percentage

B16 Melanocarcinoma = assay: Experiment 18: B16 i.p., saline with Tween-80, male; format: in vivo, Mouse B6 C3 F1
Description: Tumor: B16 Melanocarcinoma
as §1
Tissue: Homogenate (or brei), tumor
as §2, §3
Day of evaluation (relative to tumor inoculation day): 60
as §4, §5, §6

[1] = Five daily dose (X5) mouse range-finding and lethality study; format: in vivo, CD2 F1 mice; settings: mouse, in vivo, iv
Procedure: (§7) A preclinical toxicology study of benzisoquinolinedione (NSC-308847) was done at Springborn Institute for Bioresearch, Inc. using CD2 F1 mice, Fischer 344 rats and beagle dogs. Animals were injected intravenously on a single dose (X1) or five daily dose (X5) regimen. Bulk drug was titrated with 0.5N HCl to form a salt solution of benzisoquinolinedione at a pH of 5.0-6.5. Sterile 0.9% saline was used for diluting the dosing solutions and was used for the vehicle control animals.
(§8) The deaths generally were preceded by rough hair coat, decreased activity, hunched posture and dehydration. […] Males and females were similarily affected on both schedules.
(§9) Defined Doses for the Five Daily Dose Mouse Lethality

CD2 F1 mice = assay: as above; format: in vivo
Procedure: as §7, §8, §9

beagle dogs [2] = assay: Single dose dog toxicity study; format: in vivo; settings: for Mortality / lethality: single; for toxicity summary, dogs: single dose i.v.
Procedure: (§10) Preclinical toxicity studies of BIDA were completed in CD2F1 Mice, Fischer 344 rats and beagle dogs (4). The animals were injected IV with a single bolus or daily for five days.
as §7
(§11) The following summarizes the major organ toxicities resulting from IV administration of benzisoquinolinedione to dogs.

beagle dogs [3] = assay: Five daily dose dog toxicity study; format: in vivo
Procedure: as §10, §7, §11

beagle dogs [4] = settings: dog, in vivo
Description: To determine the source of the color, the following analyses were done: HPLC and TLC (for drug); routine urinalyses, orthotolidine reagent strip and sulfosalicylic acid/ammonium sulfate precipitation tests (for occult blood).

[5] = X5, listed as benzisoquinolinedione
[6] = 18.4 mg/kg, three dogs, days 2, 3 and/or 4

Work on `CN(C)CCN1C(=O)c2cccc3cc(N)cc(c23)C1=O` [Example 9, 1H-Benz[de]isoquinoline-1,3(2H)-dione, 5-amino-2-[2-(dimethylamino)ethyl]] yielded a response vs control in vivo at 2 mg/kg (leukemia P388; Mus musculus, P388, read-out: T/C %, dose 2,00 mg/kg) of 137%, a response vs control in vivo at 4 mg/kg (leukemia P388; Mus musculus, P388, read-out: T/C %, dose 4,00 mg/kg) of 142% and a response vs control in vivo at 32 mg/kg (leukemia P388; Mus musculus, P388, read-out: T/C %, dose 32,00 mg/kg) of less than 100%. For the same molecule, the response vs control in vivo at 65 mg/kg (leukemia P388; Mus musculus, P388, read-out: T/C %, dose 65,00 mg/kg) was less than 100%, the minimal effective dose (leukemia P388; Mus musculus, P388, minor active dose reaching T/C≥120) was 2 mg/kg and the “STATUS (activity against leukemia P388)” value (leukemia P388; at the dose of the same line of the appendix table) was “T/C > 120 active”. For the same molecule, the hemolysis (canine whole blood; 1:1 drug to blood) was “hemolysis”, the hemolysis (canine whole blood; 1:2) was “Slight hemolysis” and the hemolysis (canine whole blood; 1:4) was “none”. The “Median survival time (MST)” value (L-1210 Lymphoid leukemia; 2.00 mg/kg i.p.) was 9.7 days, the “Percent T/C” value (L-1210 Lymphoid leukemia; 2.00 mg/kg i.p.) was 105% and the “Median survival time (MST)” value (L-1210 Lymphoid leukemia; 4.00 mg/kg i.p.) was 10.7 days. For the same molecule, the “Percent T/C” value (L-1210 Lymphoid leukemia; 4.00 mg/kg i.p.) was 116%, the “Median survival time (MST)” value (L-1210 Lymphoid leukemia; 8.00 mg/kg i.p.) was 12.0 days and the “Percent T/C” value (L-1210 Lymphoid leukemia; 8.00 mg/kg i.p.) was 130%. For the same molecule, the “Median survival time (MST)” value (L-1210 Lymphoid leukemia; 16.00 mg/kg i.p.) was 19.0 days, the “Percent T/C” value (L-1210 Lymphoid leukemia; 16.00 mg/kg i.p.) was 200% and the “Median survival time (MST)” value (L-1210 Lymphoid leukemia; 32.00 mg/kg i.p.) was 8.3 days. The “Percent T/C” value (L-1210 Lymphoid leukemia; 32.00 mg/kg i.p.) was 90%, the “Median survival time (MST)” value (B16 Melanocarcinoma; 4.00 mg/kg i.p.) was 22.0 days and the “Percent T/C” value (B16 Melanocarcinoma; 4.00 mg/kg i.p.) was 113%. The “Median survival time (MST)” value (B16 Melanocarcinoma; 8.00 mg/kg i.p.) was 23.2 days, the “Percent T/C” value (B16 Melanocarcinoma; 8.00 mg/kg i.p.) was 120% and the “Median survival time (MST)” value (B16 Melanocarcinoma; 16.00 mg/kg i.p.) was 27.0 days. For the same molecule, the “Percent T/C” value (B16 Melanocarcinoma; 16.00 mg/kg i.p.) was 139%, the “Median survival time (MST)” value (B16 Melanocarcinoma; 32.00 mg/kg i.p.) was 6.3 days and the LD50 ([1]; combined sexes) was 28.4 mg/kg. For the same molecule, the LD50 ([1]; male) was 28.8 mg/kg, the “body weight, mice” value (CD2 F1 mice; X5) was “Dose-related weight loss was mild to severe initially” and the “time of mortality, mice” value (CD2 F1 mice; [5]) was “between days 1 and 10; also recorded: between days 6 and 10”. For the same molecule, the “toxic signs, mice” value (CD2 F1 mice; [5]) was “labored breathing, exophthalmus, hyperextension of limbs, loss of locomotor ability, struggling, rough hair coat, huched posture, dehydration, increased irritability, decreased activity, swollen and necrotic tails, squinted eyes, prostration and moribundity; also recorded: ataxia and swollen faces with closed eyes and ocular discharge; also recorded: tail lesions which persisted to termination on day 33”, the LD10 (CD2 F1 mice; combined sexes) was 24.9 mg/kg/day and the “LD10, second dose column” value (CD2 F1 mice; combined sexes) was 74.7. For the same molecule, the LD90 (CD2 F1 mice; combined sexes) was 32.5 mg/kg/day, the “LD90, second dose column” value (CD2 F1 mice; combined sexes) was 97.5 and the “Slope (lethality)” value (CD2 F1 mice; combined sexes) was 22.3. The LD10 (CD2 F1 mice; male) was 24.3 mg/kg/day, the “LD10, second dose column” value (CD2 F1 mice; male) was 72.9 and the LD90 (CD2 F1 mice; male) was 34.2 mg/kg/day. For the same molecule, the “LD90, second dose column” value (CD2 F1 mice; male) was 102.6, the “Slope (lethality)” value (CD2 F1 mice; male) was 17.2 and the “gross or microscopic lesions” value (beagle dogs [2]; 0.92 mg/kg) was “No drug-related gross or microscopic lesions were found”. For the same molecule, the Mortality / lethality (beagle dogs [2]; 0.92 mg/kg (1/10MELD10)) was 0/4, the SGPT (beagle dogs [2]; 0.92 mg/kg, days 2 and 4) was 27-40 I.U./L and the BUN (beagle dogs [2]; 0.92 mg/kg, one dog, day 4) was 26 mg/dL. For the same molecule, the Creatinine (beagle dogs [2]; 0.92 mg/kg, one dog, day 4) was 1.29 mg/dL, the “gross or microscopic lesions” value (beagle dogs [2]; 9.2 mg/kg) was “No drug-related gross or microscopic lesions were found” and the Mortality / lethality (beagle dogs [2]; 9.2 mg/kg (MELD10)) was 0/4. The Creatinine (beagle dogs [2]; 9.2 mg/kg, day 4) was 1.31 mg/dL, the BUN (beagle dogs [2]; 9.2 mg/kg, one dog, days 2 and 4) was 22 to 23 mg/dL and the SGPT (beagle dogs [2]; 9.2 mg/kg, three dogs, days 2 and/or 4) was 32-43 I.U./L. The Nervous system signs (beagle dogs [2]; 18.4 mg/kg) was “vocalizations, struggling against restraint, excessive salivation, hyperextension of all limbs and/or labored breathing”, the Mortality / lethality (beagle dogs [2]; 18.4 mg/kg (2XMELD10), listed as BIDA) was “Neither the single injection of 2×MELD10 or the daily×5 injection of the 3×MELD10 caused lethality” and the Mortality / lethality (beagle dogs [2]; 18.4 mg/kg (2XMELD10), listed as benzisoquinolinedione) was “no deaths and 0/4”. The BUN (beagle dogs [2]; 18.4 mg/kg, all dogs, day 2) was 23 to 32 mg/dL, the “leukopenia (leukocyte count)” value (beagle dogs [2]; 18.4 mg/kg, days 3, 8 or 4) was 3.8-5.4 ×10^3 /cmm and the “gross or microscopic lesions” value (beagle dogs [2]; 18.4 mg/kg, listed as benzisoquinolinedione) was “No gross or microscopic lesions were seen; also recorded: No drug-related gross or microscopic lesions were found”. The SGOT (beagle dogs [2]; [6]) was 43-70 I.U./L, the SGPT (beagle dogs [2]; [6]) was 40-57 I.U./L and the BUN (beagle dogs [2]; 18.4 mg/kg, two long-term dogs, days 22 and 29 or 28) was 23 to 29 mg/dL. The “toxicity summary, dogs” value (beagle dogs [2]; listed as BIDA) was “Hematopoletic, renal and hepatic toxicity; also recorded: Signs indicating pain and/or neurotoxicity”, the “toxicity summary, dogs” value (beagle dogs [2]; listed as benzisoquinolinedione) was “reversible toxicity to the hematopoietic system, kidney and liver; also recorded: Signs indicative of pain and/or neurotoxicity; also recorded: No drug-related gross or microscopic lesions” and the drug-related toxicities (beagle dogs [3]; 0.38 mg/kg/day) was “No drug-related toxicities were found”. For the same molecule, the Mortality / lethality (beagle dogs [3]; 0.38 mg/kg/day (1/10MELD10)) was 0/4, the drug-related toxicities (beagle dogs [3]; 3.8 mg/kg/day) was “No drug-related toxicities were found” and the Mortality / lethality (beagle dogs [3]; 3.8 mg/kg/day (MELD10)) was 0/4. The “gross or microscopic lesions” value (beagle dogs [3]; 11.4 mg/kg/day) was “No drug-related gross or microscopic lesions were found”, the Mortality / lethality (beagle dogs [3]; 11.4 mg/kg/day (3XMELD10), listed as BIDA) was “Neither the single injection of 2×MELD10 or the daily×5 injection of the 3×MELD10 caused lethality” and the Mortality / lethality (beagle dogs [3]; 11.4 mg/kg/day (3XMELD10), listed as benzisoquinolinedione) was “no deaths and 0/4”. For the same molecule, the “leukopenia (leukocyte count)” value (beagle dogs [3]; 11.4 mg/kg/day, all four dogs) was 3.5-6.6 ×10^3 /cmm, the Nervous system signs (beagle dogs [3]; 11.4 mg/kg/day, days 2 and/or 3) was “Three of four dogs showed signs indicating nervous system toxicity” and the BUN (beagle dogs [3]; 11.4 mg/kg/day, one dog, day 8) was 27 mg/dL. The “decrease in hemoglobin, hematocrit and red blood cells below pretest values” (beagle dogs [3]; 11.4 mg/kg/day, two dogs, day 4 or 8) was 15-24%, the “toxicity summary, dogs” value (beagle dogs [3]; five daily doses i.v., listed as benzisoquinolinedione) was “reversible toxicity to the hematopoietic system, kidney and liver; also recorded: Signs indicative of pain and/or neurotoxicity; also recorded: No drug-related gross or microscopic lesions” and the blood in urine (beagle dogs [4]) was “the presence of blood was negligible”.
